According to ChEMBL document CHEMBL1136476, “Catechol-substituted L-chicoric acid analogues as HIV integrase inhibitors” (Bioorg Med Chem Lett, 2003):

Biological target: Human immunodeficiency virus type 1 integrase (Human immunodeficiency virus 1, UniProt Q7ZJM1)
Assay: Inhibitory activity against HIV-1 integrase

Human immunodeficiency virus type 1 integrase, sequence (Q7ZJM1 whole entry): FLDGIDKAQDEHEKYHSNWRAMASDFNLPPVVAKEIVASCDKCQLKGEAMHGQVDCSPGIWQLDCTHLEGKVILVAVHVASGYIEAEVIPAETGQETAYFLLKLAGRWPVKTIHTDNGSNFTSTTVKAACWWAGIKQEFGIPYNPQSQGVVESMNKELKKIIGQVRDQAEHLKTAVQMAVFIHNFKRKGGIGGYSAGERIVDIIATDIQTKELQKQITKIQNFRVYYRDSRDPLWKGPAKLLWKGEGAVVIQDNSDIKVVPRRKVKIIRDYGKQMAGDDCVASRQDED

Question: Which IC50 does the source give for `O=C(O)C(Cc1ccc(O)c(O)c1)C(Cc1ccc(O)c(O)c1)C(=O)O` (stereo not given) here?
Answer: 19.1 µM

Question: How did the IC50 turn out when `COc1ccc(CC(C(=O)O)C(Cc2ccc(OC)c(OC)c2)C(=O)O)cc1OC` (stereo not given) was run?
Answer: > 150 µM

Question: For `O=C1NC(=O)C(c2ccc(O)c(O)c2)=C1c1ccc(O)c(O)c1`, which IC50 is on record?
Answer: 15.5 µM

Question: How did the IC50 turn out when `COc1ccc(C2=C(c3ccc(OC)c(OC)c3)C(=O)NC2=O)cc1OC` was run?
Answer: > 150 µM

Question: Which IC50 does the source give for `O=C1OC(=O)C(c2ccc(O)c(O)c2)=C1c1ccc(O)c(O)c1` here?
Answer: 3.8 µM

Question: With `COc1ccc(C(C(=O)O)C(C(=O)O)c2ccc(OC)c(OC)c2)cc1OC` (stereo not given) as the molecule, how does the IC50 read?
Answer: > 150 µM

Question: `O=C(O)c1[nH]c(C(=O)O)c(-c2ccc(O)c(O)c2)c1-c1ccc(O)c(O)c1` was tested. Which IC50 did it give?
Answer: 5.3 µM

Question: For `COc1ccc(C2=C(c3ccc(OC)c(OC)c3)C(=O)OC2=O)cc1OC`, which IC50 is on record?
Answer: > 150 µM

Question: For `COc1ccc(-c2c(C(=O)O)[nH]c(C(=O)O)c2-c2ccc(OC)c(OC)c2)cc1OC`, which IC50 is on record?
Answer: > 150 µM

Question: With `O=C(O)C(c1ccc(O)c(O)c1)C(C(=O)O)c1ccc(O)c(O)c1` (stereo not given) as the molecule, how does the IC50 read?
Answer: 23.6 µM
